Test results reported in patent US20150118306A1, “COMPOSITIONS COMPRISING SULFORAPHANE OR A SULFORAPHANE PRECURSOR AND A MILK THISTLE EXTRACT OR POWDER” (Nutramax Laboratories, Inc., priority 2012, published 2015).

Legend:
[1] = system: heme oxygenase-1 (HO-1); settings: oral administration; mammary epithelium; Sprague-Dawley rats; cited from earlier work
[2] = system: NAD(P)H:quinine oxidoreductase (NQO1); settings: oral administration; mammary epithelium; Sprague-Dawley rats; cited from earlier work
[3] = system: myrosinase; experiment: Equimolar conversion of glucoraphanin to sulforaphane by myrosinase, HPLC (Example 4); assay type: biochemical, broccoli
Description: A two-part experiment was conducted to further elucidate the role of ascorbic acid in modulating myrosinase activity. […] A control sample contained no ascorbic acid, and the enzymatic conversion proceeded unassisted by a co-factor. PART 1. […] PART 2. While keeping the amount of broccoli seed extract fixed at 250 mg, the concentration of ascorbic acid was varied from 0.4 mmol/Liter to 3.8 mmol/Liter.

[4] = system: HepG2 cells; experiment: Glutathione levels in HepG2 cell lysates, o-phthalaldehyde fluorescence (Example 6); assay type: cell-based, human; settings: alone or combined
Description: The following study was conducted to determine the effect of the combination of sulforaphane and silibinin on glutathione levels. Glutathione plays an important role in the body, as it can serve as an antioxidant, detoxifier, and immunity enhancer. Decreased levels of glutathione can cause a patient to be susceptible to oxidative stress, illness, and cancer. Therefore, an increase in glutathione levels is a beneficial effect.
In the study, the human liver cancer cell line, HepG2 cells were treated with DMSO (vehicle control), sulforaphane (SFN), silibinin (Silib), or the combination of sulforaphane and silibinin, for 24 hours. Cell lysates were collected and glutathione levels were measured using o-phthalaldehyde (OPT) as a fluorescent reagent. FIG. 5 and FIG. 6 show the results of the study.
In Part 1 of the study, the effect of 0.5 μM SFN was compared to various concentrations of silibinin and to the combination of 0.5 μM SFN and silibinin at various concentrations. […] An increase in glutathione levels is a beneficial effect. The results are depicted in FIG. 5.
In Part 2 of the study, the effect of 2 μM SFN was compared to various concentrations of silibinin and to the combination of 2 μM SFN and silibinin at various concentrations. […] An increase in glutathione levels is a beneficial effect to detoxify cells. The results are depicted in FIG. 6.

[5] = system: mammary tumors; settings: Sprague-Dawley rats; cited from earlier work
[6] = system: myrosinase; experiment: Conversion of glucoraphanin to sulforaphane in simulated intestinal fluid (Example 5); assay type: biochemical, broccoli; settings: 38° C., ascorbic acid 0.25 to 1.00 mmol/Liter, 2 hours, FIG. 4
Description: Simulated Intestinal Fluid (SIF) powder, a commercially supplied concentrate closely approximating the human intestinal content in terms of composition, pH and ionic strength, was used. The experiment utilized a USP Dissolution Apparatus 2 (paddles), where into six dissolution vessels 500 mL of Simulated Intestinal Fluid was dispensed, along with 150 mg of freeze-dried broccoli sprout powder as a source of myrosinase. […] Aliquots were withdrawn every 15 minutes, and assayed for sulforaphane.

Row | Structure (SMILES) | Elevated immunostaining of HO-1 enzyme [1] | Increase in NQO1 enzymatic activity [2] | Stoichiometry of enzymatic conversion of glucoraphanin to sulforaphane ([3]; control sample without ascorbic acid) | Glutathione levels compared to DMSO (vehicle) control ([4]; Part 1, 24 hours: 0.5 μM SFN, 100, 200, 300 μM Silib, FIG. 5) | Glutathione levels compared to the control ([4]; Part 2, 24 hours: 2 μM SFN, 100, 300 μM Silib, FIG. 6) | Formation of mammary tumors [5] | Yield of sulforaphane versus ascorbic acid concentration [6] | Modulatory effect of increasing ascorbic acid concentration on myrosinase activity ([3]; Part 2: 250 mg broccoli seed extract, ascorbic acid 0.4 to 3.8 mmol/Liter)
1 | C[S+]([O-])CCCC/C(=N\OS(=O)(=O)O)S[C@@H]1O[C@H](CO)[C@@H](O)[C@H](O)[C@H]1O (stereo partly drawn) [glucoraphanin, 1-S-[(1E)-5-(methylsulfinyl)-N-(sulfonatooxy)pentanimidoyl]-1-thio-β-D-glucopyranose] | 4 fold | 3 fold | equimolar conversion of glucoraphanin to sulforaphane |  |  |  |  | 
2 | C[S+]([O-])CCCCN=C=S (stereo not drawn) [sulforaphane, 1-isothiocyanato-4-methylsulfinylbutane] | 4 fold |  |  | remained the same | remained the same | effective in blocking the formation of mammary tumors |  | 
3 | O=C1O[C@H]([C@@H](O)CO)C(O)=C1O [Ascorbic Acid, ascorbic acid] |  |  |  |  |  |  | direct correlation between larger yield of sulforaphane and higher concentrations of ascorbic acid | linear, increase in myrosinase-promoted conversion of glucoraphanin to sulforaphane is observed to about 2 mmol/L
